# Laboratory results as given in ChEMBL document CHEMBL1649545, “Efficacy of triazoles in a murine disseminated infection by Candida krusei” (2009).
# Activity calls are given as the source filed them. The calls are words filed in the database; no cut-off is given here.
# Assays:
# [1] = test system: Pichia kudriavzevii; assay: Antifungal activity against Candida krusei FMR9729 infected OF1 mouse disseminated infection model assessed as reduction in spleen tissue fungal burden at 50 mg/kg/day, po for 5 days administered 24 hrs postinfection measured after 24 hrs post treatment relative to control; format: functional, organism-based
# [2] = test system: Pichia kudriavzevii; assay: Antifungal activity against Candida krusei FMR9728 infected OF1 mouse disseminated infection model assessed as reduction in spleen tissue fungal burden at 100 mg/kg/day, po for 5 days administered 24 hrs postinfection measured after 24 hrs post treatment relative to control; format: functional, organism-based
# [3] = test system: Pichia kudriavzevii; assay: Antifungal activity against Candida krusei FMR9728 infected OF1 mouse disseminated infection model assessed as reduction in kidney tissue fungal burden at 50 mg/kg/day, po for 5 days administered 24 hrs postinfection measured after 24 hrs post treatment relative to control; format: functional, organism-based
# [4] = test system: Pichia kudriavzevii; assay: Antifungal activity against Candida krusei FMR9728 infected OF1 mouse disseminated infection model assessed as reduction in kidney tissue fungal burden at 100 mg/kg/day, po for 5 days administered 24 hrs postinfection measured after 24 hrs post treatment relative to control; format: functional, organism-based
# [5] = test system: Pichia kudriavzevii; assay: Antifungal activity against Candida krusei FMR9728 infected OF1 mouse disseminated infection model assessed as reduction in spleen tissue fungal burden at 50 mg/kg/day, po for 5 days administered 24 hrs postinfection measured after 24 hrs post treatment relative to control; format: functional, organism-based
# [6] = test system: Pichia kudriavzevii; assay: Antifungal activity against 5 x 10^7 CFU Candida krusei FMR9729 infected OF1 mouse disseminated infection model assessed as prolongation of mouse survival at 100 mg/kg/day, po for 5 days administered 24 hrs postinfection measured daily for 15 days; format: functional, organism-based
# [7] = test system: Pichia kudriavzevii; assay: Antifungal activity against Candida krusei FMR9728 by M27-A2 broth dilution method; format: functional
# [8] = test system: Pichia kudriavzevii; assay: Antifungal activity against 5 x 10^7 CFU Candida krusei FMR9728 infected OF1 mouse disseminated infection model assessed as prolongation of mouse survival at 100 mg/kg/day, po for 5 days administered 24 hrs postinfection measured daily for 15 days; format: functional, organism-based
# [9] = test system: Pichia kudriavzevii; assay: Antifungal activity against Candida krusei FMR9729 infected OF1 mouse disseminated infection model assessed as reduction in kidney tissue fungal burden at 50 mg/kg/day, po for 5 days administered 24 hrs postinfection measured after 24 hrs post treatment relative to control; format: functional, organism-based
# [10] = test system: Pichia kudriavzevii; assay: Antifungal activity against Candida krusei FMR9729 by M27-A2 broth dilution method; format: functional
# [11] = test system: Pichia kudriavzevii; assay: Antifungal activity against 5 x 10^7 CFU Candida krusei FMR9729 infected OF1 mouse disseminated infection model assessed as prolongation of mouse survival at 50 mg/kg/day, po for 5 days administered 24 hrs postinfection measured daily for 15 days; format: functional, organism-based
# [12] = test system: Pichia kudriavzevii; assay: Antifungal activity against Candida krusei FMR9729 infected OF1 mouse disseminated infection model assessed as reduction in spleen tissue fungal burden at 100 mg/kg/day, po for 5 days administered 24 hrs postinfection measured after 24 hrs post treatment relative to control; format: functional, organism-based
# [13] = test system: Pichia kudriavzevii; assay: Antifungal activity against 5 x 10^7 CFU Candida krusei FMR9728 infected OF1 mouse disseminated infection model assessed as prolongation of mouse survival at 50 mg/kg/day, po for 5 days administered 24 hrs postinfection measured daily for 15 days; format: functional, organism-based
# [14] = test system: Pichia kudriavzevii; assay: Antifungal activity against Candida krusei FMR9729 infected OF1 mouse disseminated infection model assessed as reduction in kidney tissue fungal burden at 100 mg/kg/day, po for 5 days administered 24 hrs postinfection measured after 24 hrs post treatment relative to control; format: functional, organism-based
# [15] = test system: Pichia kudriavzevii; assay: Antifungal activity against 5 x 10^7 CFU Candida krusei FMR9728 infected OF1 mouse disseminated infection model assessed as prolongation of mouse survival at 10 mg/kg/day, iv for 5 days administered 24 hrs postinfection measured daily for 15 days; format: functional, organism-based
# [16] = test system: Pichia kudriavzevii; assay: Antifungal activity against Candida krusei FMR9728 infected OF1 mouse disseminated infection model assessed as reduction in spleen tissue fungal burden at 60 mg/kg/day, po for 5 days administered 24 hrs postinfection measured after 24 hrs post treatment relative to control; format: functional, organism-based
# [17] = test system: Pichia kudriavzevii; assay: Antifungal activity against Candida krusei FMR9729 infected OF1 mouse disseminated infection model assessed as reduction in spleen tissue fungal burden at 60 mg/kg/day, po for 5 days administered 24 hrs postinfection measured after 24 hrs post treatment relative to control; format: functional, organism-based
# [18] = test system: Pichia kudriavzevii; assay: Antifungal activity against Candida krusei FMR9729 infected OF1 mouse disseminated infection model assessed as reduction in spleen tissue fungal burden at 40 mg/kg/day, po for 5 days administered 24 hrs postinfection measured after 24 hrs post treatment relative to control; format: functional, organism-based
# [19] = test system: Pichia kudriavzevii; assay: Antifungal activity against Candida krusei FMR9729 infected OF1 mouse disseminated infection model assessed as reduction in kidney tissue fungal burden at 20 mg/kg/day, iv for 5 days administered 24 hrs postinfection measured after 24 hrs post treatment relative to control; format: functional, organism-based
# [20] = test system: Pichia kudriavzevii; assay: Antifungal activity against 5 x 10^7 CFU Candida krusei FMR9728 infected OF1 mouse disseminated infection model assessed as prolongation of mouse survival at 60 mg/kg/day, po for 5 days administered 24 hrs postinfection measured daily for 15 days; format: functional, organism-based
# [21] = test system: Pichia kudriavzevii; assay: Antifungal activity against Candida krusei FMR9728 infected OF1 mouse disseminated infection model assessed as reduction in kidney tissue fungal burden at 40 mg/kg/day, po for 5 days administered 24 hrs postinfection measured after 24 hrs post treatment relative to control; format: functional, organism-based
# [22] = test system: Pichia kudriavzevii; assay: Antifungal activity against Candida krusei FMR9728 infected OF1 mouse disseminated infection model assessed as reduction in kidney tissue fungal burden at 20 mg/kg/day, iv for 5 days administered 24 hrs postinfection measured after 24 hrs post treatment relative to control; format: functional, organism-based
# [23] = test system: Pichia kudriavzevii; assay: Antifungal activity against Candida krusei FMR9728 infected OF1 mouse disseminated infection model assessed as reduction in kidney tissue fungal burden at 60 mg/kg/day, po for 5 days administered 24 hrs postinfection measured after 24 hrs post treatment relative to control; format: functional, organism-based
# [24] = test system: Pichia kudriavzevii; assay: Antifungal activity against Candida krusei FMR9729 infected OF1 mouse disseminated infection model assessed as reduction in spleen tissue fungal burden at 10 mg/kg/day, iv for 5 days administered 24 hrs postinfection measured after 24 hrs post treatment relative to control; format: functional, organism-based
# [25] = test system: Pichia kudriavzevii; assay: Antifungal activity against Candida krusei FMR9729 infected OF1 mouse disseminated infection model assessed as reduction in kidney tissue fungal burden at 10 mg/kg/day, iv for 5 days administered 24 hrs postinfection measured after 24 hrs post treatment relative to control; format: functional, organism-based
# [26] = test system: Pichia kudriavzevii; assay: Antifungal activity against Candida krusei FMR9728 infected OF1 mouse disseminated infection model assessed as reduction in spleen tissue fungal burden at 40 mg/kg/day, po for 5 days administered 24 hrs postinfection measured after 24 hrs post treatment relative to control; format: functional, organism-based
# [27] = test system: Pichia kudriavzevii; assay: Antifungal activity against 5 x 10^7 CFU Candida krusei FMR9729 infected OF1 mouse disseminated infection model assessed as prolongation of mouse survival at 20 mg/kg/day, iv for 5 days administered 24 hrs postinfection measured daily for 15 days; format: functional, organism-based
# [28] = test system: Pichia kudriavzevii; assay: Antifungal activity against 5 x 10^7 CFU Candida krusei FMR9729 infected OF1 mouse disseminated infection model assessed as prolongation of mouse survival at 60 mg/kg/day, po for 5 days administered 24 hrs postinfection measured daily for 15 days; format: functional, organism-based
# [29] = test system: Pichia kudriavzevii; assay: Antifungal activity against Candida krusei FMR9729 infected OF1 mouse disseminated infection model assessed as reduction in spleen tissue fungal burden at 20 mg/kg/day, iv for 5 days administered 24 hrs postinfection measured after 24 hrs post treatment relative to control; format: functional, organism-based
# [30] = test system: Pichia kudriavzevii; assay: Antifungal activity against Candida krusei FMR9729 infected OF1 mouse disseminated infection model assessed as reduction in kidney tissue fungal burden at 60 mg/kg/day, po for 5 days administered 24 hrs postinfection measured after 24 hrs post treatment relative to control; format: functional, organism-based
# [31] = test system: Pichia kudriavzevii; assay: Antifungal activity against Candida krusei FMR9729 infected OF1 mouse disseminated infection model assessed as reduction in kidney tissue fungal burden at 40 mg/kg/day, po for 5 days administered 24 hrs postinfection measured after 24 hrs post treatment relative to control; format: functional, organism-based
# [32] = test system: Pichia kudriavzevii; assay: Antifungal activity against 5 x 10^7 CFU Candida krusei FMR9728 infected OF1 mouse disseminated infection model assessed as prolongation of mouse survival at 20 mg/kg/day, iv for 5 days administered 24 hrs postinfection measured daily for 15 days; format: functional, organism-based
# [33] = test system: Pichia kudriavzevii; assay: Antifungal activity against 5 x 10^7 CFU Candida krusei FMR9729 infected OF1 mouse disseminated infection model assessed as prolongation of mouse survival at 10 mg/kg/day, iv for 5 days administered 24 hrs postinfection measured daily for 15 days; format: functional, organism-based
# [34] = test system: Pichia kudriavzevii; assay: Antifungal activity against Candida krusei FMR9728 infected OF1 mouse disseminated infection model assessed as reduction in spleen tissue fungal burden at 20 mg/kg/day, iv for 5 days administered 24 hrs postinfection measured after 24 hrs post treatment relative to control; format: functional, organism-based
# [35] = test system: Pichia kudriavzevii; assay: Antifungal activity against Candida krusei FMR9728 infected OF1 mouse disseminated infection model assessed as reduction in kidney tissue fungal burden at 10 mg/kg/day, iv for 5 days administered 24 hrs postinfection measured after 24 hrs post treatment relative to control; format: functional, organism-based
# [36] = test system: Pichia kudriavzevii; assay: Antifungal activity against 5 x 10^7 CFU Candida krusei FMR9729 infected OF1 mouse disseminated infection model assessed as prolongation of mouse survival at 40 mg/kg/day, po for 5 days administered 24 hrs postinfection measured daily for 15 days; format: functional, organism-based
# [37] = test system: Pichia kudriavzevii; assay: Antifungal activity against 5 x 10^7 CFU Candida krusei FMR9728 infected OF1 mouse disseminated infection model assessed as prolongation of mouse survival at 40 mg/kg/day, po for 5 days administered 24 hrs postinfection measured daily for 15 days; format: functional, organism-based
# [38] = test system: Pichia kudriavzevii; assay: Antifungal activity against Candida krusei FMR9728 infected OF1 mouse disseminated infection model assessed as reduction in spleen tissue fungal burden at 10 mg/kg/day, iv for 5 days administered 24 hrs postinfection measured after 24 hrs post treatment relative to control; format: functional, organism-based
structure (smiles),measurement,setting,value
CC[C@@H]([C@H](C)O)n1ncn(-c2ccc(N3CCN(c4ccc(OC[C@@H]5CO[C@@](Cn6cncn6)(c6ccc(F)cc6F)C5)cc4)CC3)cc2)c1=O [POSACONAZOLE],Activity,[1],Active
same,Activity,[2],Active
same,Activity,[3],Active
same,Activity,[4],Active
same,Activity,[5],Active
same,Activity,[6],Active
same,MFC,[7],1 µg/mL
same,MIC50,[7],0.125 µg/mL
same,Activity,[8],Active
same,Activity,[9],Active
same,MFC,[10],2 µg/mL
same,MIC50,[10],0.25 µg/mL
same,Activity,[11],Active
same,Activity,[12],Active
same,Activity,[13],Active
same,Activity,[14],Active
C[C@@H](c1ncncc1F)[C@](O)(Cn1cncn1)c1ccc(F)cc1F [VORICONAZOLE],Activity,[15],Active
same,Activity,[16],Active
same,Activity,[17],Active
same,Activity,[18],inactive
same,Activity,[19],inactive
same,Activity,[20],Active
same,Activity,[21],Active
same,Activity,[22],inactive
same,Activity,[23],Active
same,Activity,[24],inactive
same,Activity,[25],inactive
same,Activity,[26],Active
same,Activity,[27],Active
same,Activity,[28],Active
same,Activity,[29],inactive
same,Activity,[30],Active
same,Activity,[31],inactive
same,Activity,[32],Active
same,MFC,[7],16 µg/mL
same,MIC50,[7],0.125 µg/mL
same,Activity,[33],Active
same,Activity,[34],inactive
same,MFC,[10],> 16 µg/mL
same,MIC50,[10],0.25 µg/mL
same,Activity,[35],inactive
same,Activity,[36],Active
same,Activity,[37],Active
same,Activity,[38],inactive
